Target: T1, soluble guanylate cyclase (sGC) (Homo sapiens, UniProt Q02108+Q02153)
T1 construct: endogenously expressing soluble guanylate cyclase (sGC); endogenous in cells; host or cells: HEK293
T1 sequence (Q02153 1-619): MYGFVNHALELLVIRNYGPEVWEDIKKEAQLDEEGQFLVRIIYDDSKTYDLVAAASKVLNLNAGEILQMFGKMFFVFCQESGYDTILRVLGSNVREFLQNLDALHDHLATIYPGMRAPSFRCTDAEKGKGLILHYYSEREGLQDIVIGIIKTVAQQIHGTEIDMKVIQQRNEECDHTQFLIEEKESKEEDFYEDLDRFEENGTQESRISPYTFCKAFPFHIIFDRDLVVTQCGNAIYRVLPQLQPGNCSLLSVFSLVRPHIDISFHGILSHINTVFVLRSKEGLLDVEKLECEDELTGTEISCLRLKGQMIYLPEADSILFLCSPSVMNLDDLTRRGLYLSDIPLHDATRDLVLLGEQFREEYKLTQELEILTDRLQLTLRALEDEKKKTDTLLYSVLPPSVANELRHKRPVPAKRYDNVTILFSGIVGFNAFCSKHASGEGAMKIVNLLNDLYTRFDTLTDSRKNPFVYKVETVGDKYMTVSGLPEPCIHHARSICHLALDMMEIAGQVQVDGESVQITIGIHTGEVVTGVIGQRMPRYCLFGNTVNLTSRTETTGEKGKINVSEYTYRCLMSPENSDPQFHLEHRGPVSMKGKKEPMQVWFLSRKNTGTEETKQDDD
T1 sequence (Q02108 1-690): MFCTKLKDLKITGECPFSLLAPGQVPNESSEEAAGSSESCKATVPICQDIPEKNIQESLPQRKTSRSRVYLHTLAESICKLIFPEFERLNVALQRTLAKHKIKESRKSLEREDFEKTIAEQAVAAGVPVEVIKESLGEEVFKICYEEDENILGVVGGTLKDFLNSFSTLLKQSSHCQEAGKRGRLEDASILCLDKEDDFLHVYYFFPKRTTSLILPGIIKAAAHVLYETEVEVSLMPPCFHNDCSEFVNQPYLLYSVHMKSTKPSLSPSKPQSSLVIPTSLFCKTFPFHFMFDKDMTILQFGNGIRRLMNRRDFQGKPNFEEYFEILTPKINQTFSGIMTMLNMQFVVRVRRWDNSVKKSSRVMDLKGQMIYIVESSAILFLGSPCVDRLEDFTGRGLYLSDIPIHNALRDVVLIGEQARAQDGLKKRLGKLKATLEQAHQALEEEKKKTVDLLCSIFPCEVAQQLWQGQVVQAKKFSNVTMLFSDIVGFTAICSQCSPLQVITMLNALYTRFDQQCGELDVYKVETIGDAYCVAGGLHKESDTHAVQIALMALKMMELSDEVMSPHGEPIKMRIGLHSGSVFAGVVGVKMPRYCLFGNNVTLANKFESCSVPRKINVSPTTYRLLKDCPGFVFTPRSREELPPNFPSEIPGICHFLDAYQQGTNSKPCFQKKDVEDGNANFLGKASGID
Test: sGC-HEK-cGMP assay with LC/MS detection
Assay type: cell-based
Conditions: HEK293 whole cells, LC/MS detection of cGMP, 10 μM DETA-NONOate; 50% of high control response (30 μM Compound Y); read-out: Absolute EC50 (nM)- binned (~)

| SMILES | EC50 [nM] |
| --- | --- |
| CS(=O)(=O)NCCNc1cnc(-c2cc(-c3ccon3)n(Cc3ccccc3F)n2)nc1 [Compound 24] | 100 to 1000 |
| CC(=O)c1cc(-c2ncc(F)c(NCCCCC(=O)O)n2)nn1Cc1ccccc1F [Compound 87] | 100 to 1000 |
| CC(C)(C(N)=O)C(=O)Nc1nc(-c2cc(-c3ccon3)n(Cc3ccccc3F)n2)ncc1F [Compound 48] | > 1000 |
| CS(=O)(=O)CCNc1cnc(-c2cc(-c3ccon3)n(Cc3ccccc3F)n2)nc1 [Compound 22] | > 1000 |
| OC(CNc1nc(-n2cc(-c3ccon3)c(Cc3ccccc3F)n2)ncc1F)(C(F)(F)F)C(F)(F)F [Compound 26] | 100 to 1000 |
| CC(=O)c1cc(-c2ncc(F)c(N(C)C)n2)nn1Cc1ccccc1F [Compound 91] | 100 to 1000 |
| NC(=O)C(F)(F)CNc1nc(-c2cc(-c3ccon3)n(Cc3ccccc3F)n2)ncc1F [Compound 15] | < 100 |
| OCCNc1cnc(-c2cc(-c3ccon3)n(Cc3ccccc3F)n2)nc1 [Compound 8] | 100 to 1000 |
| O=C(NC1CC1)C(O)(CNc1nc(-c2cc(-c3ccon3)n(Cc3ccccc3F)n2)ncc1F)C(F)(F)F (stereo not drawn) [Compound 65] | < 100 |
| NC(=O)Cc1cn(-c2nc(-c3cc(-c4ccon4)n(Cc4ccccc4F)n3)ncc2F)[nH]c1=O [Compound 41] | > 1000 |
| Cc1nnc(Nc2nc(-c3cc(-c4ccon4)n(Cc4ccccc4F)n3)ncc2F)o1 [Compound 14] | 100 to 1000 |
| CC(=O)c1cc(-c2ncc(F)c(N(C)CC3(C(=O)O)CCCC3)n2)nn1Cc1ccccc1F [Compound 90] | < 100 |
| CC(C)(NC(=O)OCc1ccccc1)C(=O)Nc1ccnc(-c2cc(-c3ccon3)n(Cc3ccccc3F)n2)n1 [Compound 5] | > 1000 |
| CC(=O)c1cc(-c2ncc(F)c(N3CCC(S(N)(=O)=O)CC3)n2)nn1Cc1ccccc1F [Compound 88] | 100 to 1000 |
| CNc1cc(-c2ncc(F)c(O)n2)nn1Cc1ccccc1F [Compound 1] | > 1000 |
| CC(=O)c1cc(-c2ncc(F)c(N3CCCCC3)n2)nn1Cc1ccccc1F [Compound 93] | 100 to 1000 |
| Cc1nnc(C(O)(CNc2nc(-c3cc(-c4ccon4)n(Cc4ccccc4F)n3)ncc2F)C(F)(F)F)o1 (stereo not drawn) [Compound 52] | < 100 |
| Fc1ccccc1Cn1nc(-c2ncc(F)c(N3CCCCO3)n2)cc1-c1ccon1 [Compound 34] | 100 to 1000 |
| Fc1ccccc1Cn1nc(-c2ncc(F)c(N3CCCO3)n2)cc1-c1ccon1 [Compound 16] | 100 to 1000 |
| CC(C)(C(N)=O)C(=O)Nc1ccnc(-c2cc(-c3ccon3)n(Cc3ccccc3F)n2)n1 [Compound 51] | 100 to 1000 |
| NC(=O)Cc1c[nH]n(-c2nc(-c3cc(-c4ccon4)n(Cc4ccccc4F)n3)ncc2F)c1=O [Compound 40] | > 1000 |
| Cn1ccnc1C(O)(CNc1nc(-c2cc(-c3ccon3)n(Cc3ccccc3F)n2)ncc1F)C(F)(F)F (stereo not drawn) [Compound 64] | 100 to 1000 |
| CC(=O)c1cc(-c2ncc(F)c(N3CC(C)C(C(=O)O)C3)n2)nn1Cc1ccccc1F (stereo not drawn) [Compound 89] | 100 to 1000 |
| Nc1nc(-c2cc(-c3ccon3)n(Cc3ccccc3F)n2)ncc1NCCO [Compound 10] | > 1000 |

The next lines start with the values.

| EC50 [nM] | SMILES |
| --- | --- |
| < 100 | OCC(CCCC(F)(F)F)Nc1nc(-c2cc(-c3ccon3)n(Cc3ccccc3F)n2)ncc1F (stereo not drawn) [Compound 127, 6,6,6-trifluoro-2-((5-fluoro-2-(1-(2-fluorobenzyl)-5-(isoxazol-3-yl)-1H-pyrazol-3-yl)pyrimidin-4-yl)amino)hexan-1-ol] |
| > 1000 | CC(=O)c1cc(-c2ncc(F)c(NS(=O)(=O)c3ccccc3)n2)nn1Cc1ccccc1F [Compound 98] |
| 100 to 1000 | OC(CNc1nc(-c2cc(-c3ncco3)n(Cc3ccccc3F)n2)ncc1F)(C(F)(F)F)C(F)(F)F [Compound 103] |
| < 100 | C[C@@](CNc1nc(-c2cc(-c3ccon3)n(Cc3ccccc3F)n2)ncc1F)(N[C@@H](CO)c1ccccc1)C(F)(F)F [Compound 107] |
| > 1000 | C=CCN(C)c1nc(-c2cc(-c3ccon3)n(Cc3ccccc3F)n2)ncc1F [Compound 166, N-allyl-5-fluoro-2-(1-(2-fluorobenzyl)-5-(isoxazol-3-yl)-1H-pyrazol-3-yl)-N-methylpyrimidin-4-amine] |
| 100 to 1000 | NC(=O)C(O)(CNc1nc(-c2cc(-c3ncco3)n(Cc3ccccc3F)n2)ncc1F)C(F)(F)F (stereo not drawn) [Compound 102] |
| > 1000 | COC1=CC(=O)N(c2nc(-c3cc(-c4ccon4)n(Cc4ccccc4F)n3)ncc2F)C1 [Compound 147, 1-(5-fluoro-2-(1-(2-fluorobenzyl)-5-(isoxazol-3-yl)-1H-pyrazol-3-yl)pyrimidin-4-yl)-4-methoxy-1H-pyrrol-2(5H)-one] |
| < 100 | O=C(OCCNc1nc(-c2cc(-c3ccon3)n(Cc3ccccc3F)n2)ncc1F)c1ccccn1 [Compound 206] |
| 100 to 1000 | CC(=O)c1cc(-c2ncc(F)c(N3CCOCC3)n2)nn1Cc1ccccc1F [Compound 95] |
| > 30000 | CC(=O)c1cc(-c2ncc(F)c(Nc3nnc(C(F)(F)F)s3)n2)nn1Cc1ccccc1F [Compound 126] |
| 100 to 1000 | NCC(=O)OCCNc1nc(-c2cc(-c3ccon3)n(Cc3ccccc3F)n2)ncc1F [Compound 199] |
| 100 to 1000 | CC(=O)c1cc(-c2ncc(F)c(N3CCC4(CCOCC4)C3)n2)nn1Cc1ccccc1F [Compound 112] |
| 100 to 1000 | CCC(N)(CC)CNc1nc(-c2cc(-c3ccon3)n(Cc3ccccc3F)n2)ncc1F [Compound 153, 2-ethyl-N1-(5-fluoro-2-(1-(2-fluorobenzyl)-5-(isoxazol-3-yl)-1H-pyrazol-3-yl)pyrimidin-4-yl)butane-1,2-diamine] |
| > 30000 | COCc1cc(-c2ncc(F)c(O)n2)nn1Cc1ccccc1F [Compound 105] |
| 100 to 1000 | CC(=O)c1cc(-c2ncc(F)c(N3CCC(C)(C(=O)O)CC3)n2)nn1Cc1ccccc1F [Compound 181] |
| 100 to 1000 | O=S(=O)(Nc1ccc(CNc2nc(-c3cc(-c4ccon4)n(Cc4ccccc4F)n3)ncc2F)cc1O)C1CC1 [Compound 160, N-(4-(((5-fluoro-2-(1-(2-fluorobenzyl)-5-(isoxazol-3-yl)-1H-pyrazol-3-yl)pyrimidin-4-yl)amino)methyl)-2-hydroxyphenyl)cyclopropanesulfonamide] |
| 100 to 1000 | CC(=O)c1cc(-c2ncc(F)c(NC3CCCCC3C(=O)O)n2)nn1Cc1ccccc1F (stereo not drawn) [Compound 123] |
| 100 to 1000 | CCOC(=O)CCNc1nc(-c2cc(-c3ccon3)n(Cc3ccccc3F)n2)ncc1F [Compound 165, ethyl 3-((5-fluoro-2-(1-(2-fluorobenzyl)-5-(isoxazol-3-yl)-1H-pyrazol-3-yl)pyrimidin-4-yl)amino)propanoate] |
| 100 to 1000 | CC(=O)c1cc(-c2ncc(F)c(N3CCC4(CC3)COC4)n2)nn1Cc1ccccc1F [Compound 113] |
| < 100 | CCC[C@H](CO)Nc1nc(-c2cc(-c3ccon3)n(Cc3ccccc3F)n2)ncc1F [Compound 152, (R)-2-((5-fluoro-2-(1-(2-fluorobenzyl)-5-(isoxazol-3-yl)-1H-pyrazol-3-yl)pyrimidin-4-yl)amino)pentan-1-ol] |
| 100 to 1000 | CC(=O)c1cc(-c2ncc(F)c(N3CC(C(=O)O)C(C)(C)C3)n2)nn1Cc1ccccc1F (stereo not drawn) [Compound 136, 1-(2-(5-acetyl-1-(2-fluorobenzyl)-1H-pyrazol-3-yl)-5-fluoropyrimidin-4-yl)-4,4-dimethylpyrrolidine-3-carboxylic acid] |
| > 1000 | CC(=O)c1cc(-c2ncc(F)c(N3CCNCC3)n2)nn1Cc1ccccc1F [Compound 94] |
| 100 to 1000 | C[C@](CNc1nc(-c2cc(-c3ccon3)n(Cc3ccccc3F)n2)ncc1F)(NC(CO)c1ccccc1)C(F)(F)F (stereo partly drawn) [Compound 131, 2-phenyl-2-(((R)-1,1,1-trifluoro-3-((5-fluoro-2-(1-(2-fluorobenzyl)-5-(isoxazol-3-yl)-1H-pyrazol-3-yl)pyrimidin-4-yl)amino)-2-methylpropan-2-yl)amino)ethanol] |
| < 100 | COC(=O)CCNc1nc(-c2cc(-c3ccon3)n(Cc3ccccc3F)n2)ncc1F [Compound 163, methyl 3-((5-fluoro-2-(1-(2-fluorobenzyl)-5-(isoxazol-3-yl)-1H-pyrazol-3-yl)pyrimidin-4-yl)amino)propanoate] |

— patent US20190284168A1, “PYRAZOLE DERIVATIES AS SGC STIMULATORS” (IRONWOOD PHARMACEUTICALS, INC., priority 2014, published 2019)
